These results are taken from patent publication US12099068B2, “Biomarkers for graft-versus-host disease” (Incyte Corporation, priority 2018, dated 2024).

Where “and” joins values, the source holds several entries; their conditions need not be identical. Identical values can stand only once. Where no end group is shown, it is not given here.

Holding throughout (format): in vivo, human
For experiment [1], the system named is subjects with aGvHD. Description: Parallel-cohort phase 1 trial, clinical response by CIBMTR response criteria at day 28. The text has this: A broad proteomic analysis identified predictive, prognostic, and pharmacodynamic biomarkers of response to the combination treatment.
Ten steroid-naive and eighteen steroid-refractory subjects with aGvHD were enrolled in the clinical trial. Plasma samples were collected from all 28 subjects prior to treatment (screening/baseline) and at day 28 following treatment. All subjects provided written consent prior to enrollment and sample collection. Based on the Center for International Blood and Marrow Transplant Research (CIBMTR) response criteria at day 28, subjects were separated into responders and non-responders. Responders included complete responders (CR; n=10), very good partial responders (VGPR; n=1), and partial responders (PR; n=8). Non-responders included mixed responders (n=2) and progressive disease/death (PD/Death; n=7).
(§1) Due to the limited sample size, steroid-naive (N=10) and steroid-refractory (N=18) patients were combined for further analysis. Broad proteomic analysis of over 1000 proteins was conducted by OLINK Proteomics (Watertown, MA) using a proximity extension assay as described by the manufacturer. Data are presented as normalized protein expression (NPX) in log 2 scale. Statistical differences were evaluated using unpaired and paired t tests, one-way […] (ANOVA), and Pearson Correlation. Significance was conferred when P<0.05.

Experiment [2] concerns plasma proteins. Description: Proteins of Table 11 stably expressed in complete responders between days 1 and 28, Example 5 (Table 12). The conditions noted are these: between baseline (Day 1) and Day 28. Here is the method:
as §1

For experiment [3], the system named is plasma proteins. Description: Plasma proteins modulated between baseline and day 28 in responders (CR, VGPR, PR; n = 19), Example 6 (Table 13). The conditions noted are these: for Fold Change, Decreased Expression from Baseline to Day 28 / Fold Change, Increased Expression from Baseline to Day 28: plasma protein (OLINK NPX), responders (CR, VGPR, PR; n = 19), itacitinib 200 mg or 300 mg QD with corticosteroids, day 28 vs baseline. As to the method:
as §1
Longitudinal differences in protein expression were analyzed by evaluating plasma samples from baseline/screening and day 28.

The mark [4] stands for this setting: responders (CR, VGPR, PR; N=19), baseline to day 28.

For the molecule `N#CCC1(n2cc(-c3ncnc4[nH]ccc34)cn2)CN(C2CCN(C(=O)c3ccnc(C(F)(F)F)c3F)CC2)C1` [itacitinib, {1-{1-[3-Fluoro-2-(trifluoromethyl)isonicotinoyl]piperidin-4-yl}-3-[4-(7H-pyrrolo[2,3-d]pyrimidin-4-yl)-1H-pyrazol-1-yl]azetidin-3-yl}acetonitrile], in experiment [1] (200 mg vs 300 mg once daily (QD) + corticosteroids), the “Clinical response between the two itacitinib doses” value is given as “not significantly different”. Moreover, the overall responses entry in experiment [1] (combination with corticosteroids, steroid naïve and refractory aGvHD patients) is “improved overall responses”. Also, the “proteins from Table 11 that did not modulate in complete responders” value in experiment [2] amounted to 89. Further, in experiment [3] (setting [4]), the proteins significantly elevated stood at 105, the proteins significantly reduced was found to be 248 and the “total proteins significantly modulated by treatment” value was determined as 353. In the case of ADGRG1, in experiment [3], the “Fold Change, Decreased Expression from Baseline to Day 28” value (“Fold Change, Decreased Expression” below) is −1.1823. On to ADM, for which, in experiment [3], the “Fold Change, Increased Expression from Baseline to Day 28” value (from here on “Fold Change, Increased Expression”) was 1.2035. As for ANXA11, the “Fold Change, Decreased Expression” value in experiment [3] was −1.3456. For APP, the “Fold Change, Decreased Expression” value in experiment [3] is −1.5208. Still for that read-out and setting: next, ARHGEF12: −1.8347. Still for that read-out and setting: as for ARSB, the figure is −1.3432; as for AXIN1, −1.8046. Still for that read-out and setting: as for CA13, the figure is −1.8816. As to CBL, the “Fold Change, Decreased Expression” value in experiment [3] was −1.7183. Regarding CCL11, the “Fold Change, Increased Expression” value in experiment [3] is 1.2818 and 1.3146. On to CD27, for which the “Fold Change, Decreased Expression” value in experiment [3] is recorded as −1.6873. The same measure, in the same setting: as for CD38, the figure is −1.4181; as for CLEC1B, −1.7033; as for COL4A1, −1.2699. The same measure, in the same setting: next, CXCL5: −1.7254.

With DECR1, the “Fold Change, Decreased Expression” value in experiment [3] is −1.4327.

Regarding DEFA1, in experiment [3], the “Fold Change, Decreased Expression” value was −1.9173. As for DKN1A, the “Fold Change, Decreased Expression” value in experiment [3] is recorded as −1.4302. Regarding DNAJB1, the “Fold Change, Decreased Expression” value in experiment [3] is −1.7332.

As to DSC2, in experiment [3], the “Fold Change, Decreased Expression” value is recorded as −1.3652.

EIF4G1: in experiment [3], the “Fold Change, Decreased Expression” value is given as −1.5969.

Take ERBB2: in experiment [3], the “Fold Change, Increased Expression” value turned out to be 1.1968. On the same count and under the same terms, next, EZR: 1.1031; FABP2: 3.5893. In the case of FGR, the “Fold Change, Decreased Expression” value in experiment [3] was −1.4406. As for FKBP1B, the “Fold Change, Decreased Expression” value in experiment [3] is on record as −1.9994. Turning to FURIN, in experiment [3], the “Fold Change, Increased Expression” value is 1.2365. As to “GAL (GWTLNSAGYLLGPHAVGNHRSFSDKNGLTS; Galanin; UniProt P22466 33-62, looked up)”, the “Fold Change, Increased Expression” value in experiment [3] turned out to be 1.6888. On to GCG, for which the “Fold Change, Increased Expression” value in experiment [3] is reported as 1.8922.

With Gal-3, the “Fold Change, Increased Expression” value in experiment [3] worked out at 1.3504. As for HAVCR2, in experiment [3], the “Fold Change, Decreased Expression” value is recorded as −1.312. As to HDGF, the “Fold Change, Decreased Expression” value in experiment [3] was −1.3392. Regarding HGF, in experiment [3], the “Fold Change, Decreased Expression” value is recorded as −1.5542.

Regarding IGF1R, in experiment [3], the “Fold Change, Increased Expression” value is on record as 1.2432. Still for that read-out and setting: next, IGF2R: 1.1734; IL6: 2.0047 and 1.8649 and 1.7278. For the molecule IQGAP2, in experiment [3], the “Fold Change, Decreased Expression” value was −1.5317. Still for that read-out and setting: next, ITGB2: −1.6877. Take LILRA5: in experiment [3], the “Fold Change, Decreased Expression” value is given as −1.342. In the case of LTBP2, in experiment [3], the “Fold Change, Increased Expression” value is 1.1874. Consider LY75, for which the “Fold Change, Decreased Expression” value in experiment [3] is reported as −1.1401.

Regarding MAP4K5, in experiment [3], the “Fold Change, Decreased Expression” value is −1.658.

Regarding MAX, the “Fold Change, Decreased Expression” value in experiment [3] was −1.449. For the molecule MCP-1, the “Fold Change, Increased Expression” value in experiment [3] was 1.6302 and 1.4322. On the same count and under the same terms, next, METRNL: 1.2013; MMP7: 1.3986. In the case of MMP-1, the “Fold Change, Decreased Expression” value in experiment [3] was −1.4112. In the case of MUC-16, the “Fold Change, Increased Expression” value in experiment [3] is given as 1.6356. On the same count and under the same terms, next, NCAM1: 1.3216. In the case of NCR1, the “Fold Change, Decreased Expression” value in experiment [3] is on record as −1.3726.

With NEMO, the “Fold Change, Decreased Expression” value in experiment [3] was −1.7984.

On to NMNAT1, for which the “Fold Change, Decreased Expression” value in experiment [3] was −1.4212. Consider NRP1, for which the “Fold Change, Decreased Expression” value in experiment [3] is −1.1237. Consider NTRK2, for which, in experiment [3], the “Fold Change, Increased Expression” value was found to be 1.118. Still for that read-out and setting: next, NTRK3: 1.2526. As to PAPPA, the “Fold Change, Decreased Expression” value in experiment [3] was −1.3491.

With PDGF subunit A, the “Fold Change, Decreased Expression” value in experiment [3] was −1.6021.

For the molecule PECAM-1, the “Fold Change, Decreased Expression” value in experiment [3] was −1.2009. Regarding PIgR, the “Fold Change, Increased Expression” value in experiment [3] is 1.1476.

Turning to PLXNA4, the “Fold Change, Decreased Expression” value in experiment [3] was −1.405. Regarding PPP1R9B, in experiment [3], the “Fold Change, Decreased Expression” value was −1.6445. For the molecule “PPY (APLEPVYPGDNATPEQMAQYAADLRRYINMLTRPRY; ends and bridges not checked; UniProt P01298 30-65, looked up)”, the “Fold Change, Increased Expression” value in experiment [3] worked out at 1.9703. As for PTX3, the “Fold Change, Decreased Expression” value in experiment [3] was −1.5567. Same read-out and setting: next, PXN: −1.329. SCARA5: the “Fold Change, Increased Expression” value in experiment [3] is 1.1342. Consider SCF, for which the “Fold Change, Increased Expression” value in experiment [3] is 1.4714 and 1.3943 and 1.4058.

With SIGLEC1, the “Fold Change, Decreased Expression” value in experiment [3] is −1.3842.

On to STIP1, for which the “Fold Change, Decreased Expression” value in experiment [3] was −1.2812. Regarding Siglec-9, the “Fold Change, Decreased Expression” value in experiment [3] is given as −1.1514.

On to THBS2, for which the “Fold Change, Increased Expression” value in experiment [3] came out at 1.0963. For the molecule THBS4, the “Fold Change, Decreased Expression” value in experiment [3] is −1.7307. Take THPO: the “Fold Change, Increased Expression” value in experiment [3] is listed as 1.867. As to TIMP1, the “Fold Change, Decreased Expression” value in experiment [3] is reported as −1.2337. Consider TNC, for which the “Fold Change, Decreased Expression” value in experiment [3] was −1.6915. Regarding TNXB, in experiment [3], the “Fold Change, Decreased Expression” value was −1.156.

As to TOP2B, the “Fold Change, Decreased Expression” value in experiment [3] was −1.7634. Still for that read-out and setting: next, TPSAB1: −1.9835; TRIM5: −1.4743. For TXNDC5, the “Fold Change, Decreased Expression” value in experiment [3] was −1.4081. Take VSIG4: the “Fold Change, Decreased Expression” value in experiment [3] was −1.5046. The same measure, in the same setting: as for YES1, the figure is −1.9824.
